Measured values published in patent US8722849B2, “Polypeptides” (Novo Nordisk A/S, priority 2011, dated 2014).
Read-outs that look alike come from different tables or passages of the source. Starred links: 1 amine or outer side, 2 acyl side, 3 side chain; linkers in the order of their positions; H or OH if unused. Positions of bridges follow the written chain, without caps; N, C: chain ends. Non-standard residues stand in square brackets, D forms with d. Residues, ends and D or L forms follow the SMILES beside them. *: point of attachment. C20 diacid = O=C(O)CCCCCCCCCCCCCCCCCCC(=O)*; γGlu = O=C(O)[C@H](CCC(=O)[*:2])N[*:1]; AEEA = NCCOCCOCC(=O)O

What was measured:
[1] = molecular target: T1, human amylin receptor (amylin 3(a) receptor: human calcitonin receptor + RAMP-3) (Homo sapiens, UniProt O60896+P30988); test: Assay (II)a functional CRE-luciferase assay, human amylin receptor; type: cell-based
T1 construct: expressed in transfected cells; host or cells: BHK570
T1 sequence (P30988 25-474): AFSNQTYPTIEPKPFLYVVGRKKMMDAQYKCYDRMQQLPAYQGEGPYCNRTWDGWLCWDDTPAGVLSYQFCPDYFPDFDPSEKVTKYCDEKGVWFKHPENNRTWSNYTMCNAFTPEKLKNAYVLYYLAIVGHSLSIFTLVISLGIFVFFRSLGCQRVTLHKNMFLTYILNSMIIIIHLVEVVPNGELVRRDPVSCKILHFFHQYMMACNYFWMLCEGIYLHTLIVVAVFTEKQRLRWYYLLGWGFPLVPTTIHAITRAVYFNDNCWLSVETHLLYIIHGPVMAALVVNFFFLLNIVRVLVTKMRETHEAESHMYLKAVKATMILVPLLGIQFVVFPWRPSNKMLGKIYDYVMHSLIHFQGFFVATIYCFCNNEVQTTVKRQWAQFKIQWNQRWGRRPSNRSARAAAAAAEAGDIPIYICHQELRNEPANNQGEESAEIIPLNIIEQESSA
T1 sequence (O60896 24-148 partner): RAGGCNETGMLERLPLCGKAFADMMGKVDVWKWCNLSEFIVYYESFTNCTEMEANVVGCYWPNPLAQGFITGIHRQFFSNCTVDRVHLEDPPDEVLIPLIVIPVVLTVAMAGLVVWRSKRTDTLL

[2] = molecular target: T2, human calcitonin receptor (Homo sapiens, UniProt P30988); test: Assay (II)a functional CRE-luciferase assay, human calcitonin receptor; type: cell-based
T2 construct: expressed in transfected cells; host or cells: BHK570
T2 sequence (P30988 25-474): T1 sequence (P30988 25-474)

[3] = molecular target: T3, rat amylin 3(a) receptor (rat calcitonin(a) receptor + rat RAMP3) (Rattus norvegicus, UniProt P32214+Q9JJ73); test: Assay (II)b functional cAMP FlashPlate assay, rat amylin receptor; type: cell-based; settings: Table 11
T3 construct: expressed in transfected cells; host or cells: BHK tk'ts 13
T3 sequence (P32214 25-479 isoform P32214-2 limits assumed): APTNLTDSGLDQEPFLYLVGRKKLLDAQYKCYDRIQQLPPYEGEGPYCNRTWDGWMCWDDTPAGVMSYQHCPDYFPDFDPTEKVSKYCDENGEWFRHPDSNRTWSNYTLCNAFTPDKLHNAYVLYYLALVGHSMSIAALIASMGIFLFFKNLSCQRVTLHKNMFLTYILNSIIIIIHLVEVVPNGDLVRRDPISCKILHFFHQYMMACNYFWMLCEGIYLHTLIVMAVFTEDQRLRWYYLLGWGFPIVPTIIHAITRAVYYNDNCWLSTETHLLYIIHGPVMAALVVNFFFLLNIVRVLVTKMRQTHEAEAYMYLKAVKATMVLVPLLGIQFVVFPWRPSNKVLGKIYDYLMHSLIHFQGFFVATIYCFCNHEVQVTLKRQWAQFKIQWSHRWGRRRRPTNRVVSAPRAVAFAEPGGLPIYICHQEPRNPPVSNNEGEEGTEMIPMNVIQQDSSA
T3 sequence (Q9JJ73 23-147 partner): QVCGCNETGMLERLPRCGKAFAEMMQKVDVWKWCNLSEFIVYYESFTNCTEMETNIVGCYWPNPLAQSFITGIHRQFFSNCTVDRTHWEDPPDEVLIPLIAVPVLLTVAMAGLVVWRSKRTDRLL
How it was run: (§1)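 BHK tk'ts 13 cells transiently transfected with rat calcitonin(a) receptor, alone or with rat RAMP3 (amylin 3(a)), were stimulated 24 hours later with sample for 30 min in buffer containing IBMX. cAMP measured by competitive radioactive FlashPlate assay, scintillation read after 3 h detection incubation.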

[4] = molecular target: T4, rat calcitonin (a) receptor (Rattus norvegicus, UniProt P32214); test: Assay (II)b functional cAMP FlashPlate assay, rat calcitonin receptor; type: cell-based; settings: Table 11; read-out: CTa receptor rat EC50
T4 construct: expressed in transfected cells; host or cells: BHK tk'ts 13
T4 sequence (P32214 25-479 isoform P32214-2 limits assumed): T3 sequence (P32214 25-479 isoform P32214-2 limits assumed)
How it was run: as §1

[5] = Assay (IV) determination of solubility; type: physicochemical
How it was run: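 Polypeptide in water (~500 nmol/ml) mixed 1:1 with 100 mM glycylglycine (pH 3.0–5.0) or bistrispropane (pH 6.0–8.0) buffers. Held 18 hours at room temperature, then centrifuged. Polypeptide remaining in solution quantified by HPLC.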

**Q.** Which EC50 ([1]; Table 2, BHK amylin 3(a)-receptor/CRE-luc cells) does the source give for `CC[C@H](C)[C@H](NC(=O)[C@@H]1CCCN1C(=O)CNC(=O)[C@H](Cc1ccccc1)NC(=O)[C@H](CC(N)=O)NC(=O)[C@H](C)NC(=O)[C@H](CO)NC(=O)[C@H](CO)NC(=O)[C@H](CCCNC(=N)N)NC(=O)[C@H](Cc1cnc[nH]1)NC(=O)[C@H](CC(C)C)NC(=O)[C@H](Cc1ccccc1)NC(=O)[C@H](CCC(=O)O)NC(=O)[C@H](C)NC(=O)[C@H](CC(C)C)NC(=O)[C@H](CCCNC(=N)N)NC(=O)[C@H](CCC(N)=O)NC(=O)[C@@H](NC(=O)[C@H](C)NC(=O)[C@@H]1CSSC[C@H](NC(=O)[C@H](CCCCN)NC(=O)[C@@H](CCCNC(=N)N)NC(=O)[C@@H](CCCNC(=N)N)NC(=O)COCCOCCNC(=O)COCCOCCNC(=O)CC[C@H](NC(=O)CCCCCCCCCCCCCCCCCCC(=O)O)C(=O)O)C(=O)N[C@@H](CC(N)=O)C(=O)N[C@@H]([C@@H](C)O)C(=O)N[C@@H](C)C(=O)N[C@@H]([C@@H](C)O)C(=O)N1)[C@@H](C)O)C(=O)N[C@@H](CC(C)C)C(=O)N1CCC[C@H]1C(=O)N1CCC[C@H]1C(=O)N[C@H](C(=O)N[C@@H](CC(N)=O)C(=O)N[C@H](C(=O)NCC(=O)N[C@@H](CO)C(=O)N[C@@H](CO)C(=O)N[C@H](C(=O)N[C@@H](Cc1ccc(O)cc1)C(N)=O)[C@@H](C)O)C(C)C)[C@@H](C)O` [Example 38, N-alpha-[2-(2-{2-[2-(2-{2-[(S)-4-Carboxy-4-(19-carboxyheptadecanoylamino)butyrylamino]ethoxy}ethoxy)acetylamino]ethoxy}ethoxy)acetyl]-D-Arg-D-Arg-[Glu14,His17,Arg18,Ala21,Ser35]-pramlintide] ({C20 diacid-γGlu-AEEA-AEEA}-[dR][dR]KCNTATCATQRLAEFLHRSSANFGPILPPTNVGSSTY-NH2; disulfide 4-9) here?
**A.** 0.149 nM

**Q.** What about the EC50 ([1]; Table 3, BHK amylin 3(a)-receptor/CRE-luc cells) of the same compound?
**A.** 0.149 nM

**Q.** And the EC50 ([1]; Table 4)?
**A.** 0.149 nM

**Q.** And the EC50 ([1]; Table 5)?
**A.** 0.149 nM

**Q.** What about the EC50 ([1]; Table 6, human amylin receptor) of the same compound?
**A.** 0.149 nM

**Q.** And the EC50 ([1]; Table 7, human amylin receptor)?
**A.** 0.149 nM

**Q.** What about the EC50 ([1]; Table 8) of the same compound?
**A.** 0.149 nM

**Q.** What about the EC50 ([1]; Table 9) of the same compound?
**A.** 0.149 nM

**Q.** And the EC50 ([1]; Table 11)?
**A.** 0.149 nM

**Q.** And the EC50 ([2]; Table 7, human calcitonin (CTa) receptor)?
**A.** 1.11 nM

**Q.** And the EC50 ([2]; Table 11, read-out: CTa receptor human EC50)?
**A.** 1.11 nM

**Q.** What about the EC50 [3] of the same compound?
**A.** 0.233 nM

**Q.** What about the EC50 [4] of the same compound?
**A.** 4.48 nM

**Q.** What about the solubility ([5]; pH 3, pH 3.0, read-out: Solubility pH 3.0) of the same compound?
**A.** > 200 µM

**Q.** What about the solubility ([5]; pH 4, pH 4.0, 18 hours at room temperature, Table 2, read-out: Solubility pH 4.0) of the same compound?
**A.** > 200 µM

**Q.** What about the solubility ([5]; pH 4, pH 4.0, read-out: Solubility pH 4.0) of the same compound?
**A.** > 200 µM

**Q.** And the solubility ([5]; pH 5, pH 5.0, read-out: Solubility pH 5.0)?
**A.** > 200 µM

**Q.** What about the solubility ([5]; pH 6, pH 6.0, read-out: Solubility pH 6.0) of the same compound?
**A.** > 200 µM

**Q.** What about the solubility ([5]; pH 6.5, pH 6.5, read-out: Solubility pH 6.5) of the same compound?
**A.** > 200 µM

**Q.** What about the solubility ([5]; pH 7, pH 7.0, 18 hours at room temperature, Table 3, read-out: Solubility pH 7.0) of the same compound?
**A.** > 200 µM

**Q.** What about the solubility ([5]; pH 7, pH 7.0, Table 8, read-out: Solubility pH 7.0) of the same compound?
**A.** > 200 µM

**Q.** What about the solubility ([5]; pH 7, pH 7.0, Table 9, read-out: Solubility pH 7.0) of the same compound?
**A.** > 200 µM

**Q.** And the solubility ([5]; pH 7, pH 7.0, read-out: Solubility pH 7.0)?
**A.** > 200 µM

**Q.** And the solubility ([5]; pH 7.5, pH 7.5, Table 9, read-out: Solubility pH 7.5)?
**A.** > 200 µM

**Q.** What about the solubility ([5]; pH 7.5, pH 7.5, read-out: Solubility pH 7.5) of the same compound?
**A.** > 200 µM

**Q.** What about the solubility ([5]; pH 8, pH 8.0, read-out: Solubility pH 8.0) of the same compound?
**A.** > 200 µM
